Assay results as given in US8598193B2, “Polycyclic agents for the treatment of respiratory syncytial virus infections” (Biota Scientific Management Pty Ltd., priority 2003, dated 2013).
In brackets after ≈: the same amount, converted by molar mass.

Tested on: RSV A2
Assay: RSV antiviral cytopathic effect (CPE) assay, MTT readout
Assay type: cell-based
Details: human respiratory syncytial virus, HEp-2, 120 h; RSV A2 in HEp2 cells, CPE assay, MTT, approx. 5 days; read-out: Activity Range (RSV A2 antiviral EC50), compounds of Table 2
Procedure: Method Q: RSV Antiviral Assay Protocol
Compounds of the invention were tested for their antiviral activity against respiratory syncytial virus. Cytopathic effect (CPE) assays were performed essentially as described in the literature (see for example Watanabe et al, 1. Virological Methods, 1994, 48, 257). Serial dilutions of the test compounds were made in assay medium. HEp2 cells (1.0×10^4 cells/well) were infected with RSV at a low multiplicity of infection (e.g. RSV A2 at an moi of 0.01) and 100 μL added to cultures assessing antiviral activity and cells without virus added to those assessing compound cytotoxicity. Assays were incubated for approximately 5 days at 37° C. in a 5% CO2 atmosphere. The extent of CPE was determined via metabolism of the vital dye 3-(4,5-dimethylthiaxol-2-yl)-2,5-diphenyltetrazolium bromide (MTT). A 3 mg/ml stock of MTT was made in assay medium and 100 μL added to each well, taking the final MTT concentration to […]. After 2 hours incubation at 37° C., the media-MTT solution was removed and 200 μL of isopropanol was added to dissolve the vital dye crystals. Plates were shaken and the absorbance read at 540 nm. The compound concentrations that inhibited CPE by 50% (EC50) and developed cytotoxicity (CC50) were calculated using an Excel curve fitting program.

SMILES | EC50 [µg/mL]
Cc1noc(C)c1COc1ccc(C23c4ccccc4C(=O)N2CCN3C(=O)c2ccc(F)cc2)cc1 (stereo not drawn) [Compound 263] | 0.1 to 0.25 (≈ 0.201 to 0.502 µM)
CCCOc1ccc(C23c4ccccc4C(=O)N2CCN3C(=O)c2ccc(F)cc2)cc1 (stereo not drawn) [Compound 311] | 0.1 to 0.25 (≈ 0.232 to 0.581 µM)
Cc1ccc(C23c4ccccc4C(=O)N2CCN3C(=O)NCc2ccccc2)cc1 (stereo not drawn) [Compound 82] | 0.25 to 1 (≈ 0.629 to 2.52 µM)
CCCc1ccc(C23c4ccccc4C(=O)N2CCN3C(=O)c2ccc(F)cc2)cc1 (stereo not drawn) [Compound 200] | < 0.1
O=C(c1csc(-c2cccs2)n1)N1CCN2C(=O)c3ccccc3C12c1ccc(Cl)cc1 (stereo not drawn) [Compound 324] | 0.1 to 0.25 (≈ 0.209 to 0.523 µM)
CCCc1ccc(C23c4ccccc4C(=O)N2CCN3C(=O)CC)cc1 (stereo not drawn) [Compound 199] | 0.25 to 1 (≈ 0.717 to 2.87 µM)
O=C(c1ccsc1)N1CCN2C(=O)c3ccccc3C12c1ccc(Cl)cc1 (stereo not drawn) [Compound 327] | 0.1 to 0.25 (≈ 0.253 to 0.633 µM)
COc1ccc(CC(=O)N2CCN3C(=O)c4ccccc4C23c2ccc(C(F)(F)F)cc2)cc1 (stereo not drawn) [Compound 304] | 0.25 to 1 (≈ 0.536 to 2.14 µM)
CCOc1ccsc1C(=O)N1CCN2C(=O)c3ccccc3C21c1ccc(Cl)cc1 (stereo not drawn) [Compound 329] | 0.1 to 0.25 (≈ 0.228 to 0.57 µM)
O=C(CCCc1ccccc1)N1CCN2C(=O)c3ccccc3C12c1ccc(Cl)cc1 (stereo not drawn) [Compound 227] | 0.25 to 1 (≈ 0.58 to 2.32 µM)
COc1ccc(CC(=O)N2CCN3C(=O)c4ccccc4C23c2ccc(F)cc2)cc1 (stereo not drawn) [Compound 232] | 0.25 to 1 (≈ 0.6 to 2.4 µM)
CC(C)Oc1ccc(C23c4ccccc4C(=O)N2CCN3C(=O)c2ccc(F)cc2)cc1 (stereo not drawn) [Compound 310] | 0.25 to 1 (≈ 0.581 to 2.32 µM)
CCC(=O)N1CCN2C(=O)c3ccccc3C12c1ccc(Br)cc1 (stereo not drawn) [Compound 236] | 0.1 to 0.25 (≈ 0.26 to 0.649 µM)
O=C(Cc1cccc(Br)c1)N1CCN2C(=O)c3ccccc3C12c1ccc(Cl)cc1 (stereo not drawn) [Compound 242] | 0.1 to 0.25 (≈ 0.208 to 0.519 µM)
Cc1ccc(CNC(=O)N2CCN3C(=O)c4ccccc4C23c2ccc(C)cc2)cc1 (stereo not drawn) [Compound 178] | 0.25 to 1 (≈ 0.608 to 2.43 µM)
COc1ccc(CC(=O)N2CCN3C(=O)c4ccccc4C23c2ccc(Br)cc2)cc1 (stereo not drawn) [Compound 235] | 0.1 to 0.25 (≈ 0.209 to 0.524 µM)
CCOc1ccc(C23c4ccccc4C(=O)N2CCN3C(=O)c2ccc(F)cc2)cc1 (stereo not drawn) [Compound 308] | 0.1 to 0.25 (≈ 0.24 to 0.6 µM)
O=C1c2ccccc2C2(c3ccc(Cl)cc3)N1CCN2C(=O)[C@@H]1CSC(c2cccs2)=N1 (stereo partly drawn) [Compound 323] | 0.25 to 1 (≈ 0.521 to 2.08 µM)

SMILES | EC50 [µg/mL]
O=C(c1ccc(Cl)nc1)N1CCN2C(=O)c3ccccc3C12c1ccc(Cl)cc1 (stereo not drawn) [Compound 312] | 0.25 to 1 (≈ 0.589 to 2.36 µM)
O=C(c1ccc(F)cc1)N1CCN2C(=O)c3ccccc3C12c1ccc(OCCCl)cc1 (stereo not drawn) [Compound 265] | 0.1 to 0.25 (≈ 0.222 to 0.554 µM)
CC(C)c1ccc(C23c4ccccc4C(=O)N2CCN3C(=O)c2ccc(F)cc2)cc1 (stereo not drawn) [Compound 203] | 0.25 to 1 (≈ 0.603 to 2.41 µM)
C=CCCC(=O)N1CCN2C(=O)c3ccccc3C12c1ccc(Cl)cc1 (stereo not drawn) [Compound 250] | 0.25 to 1 (≈ 0.681 to 2.73 µM)
O=C(c1cccs1)N1CCN2C(=O)c3ccccc3C12c1ccc(Cl)cc1 (stereo not drawn) [Compound 224] | < 0.1
COc1ccc(CNC(=O)N2CCN3C(=O)c4ccccc4C23c2ccc(C)cc2)cc1 (stereo not drawn) [Compound 179] | 0.25 to 1 (≈ 0.585 to 2.34 µM)
O=C(CSCc1ccccc1)N1CCN2C(=O)c3ccccc3C12c1ccc(Cl)cc1 (stereo not drawn) [Compound 217] | 0.1 to 0.25 (≈ 0.223 to 0.557 µM)
O=C1c2ccccc2C2(c3ccc(Cl)cc3)N1CCN2C(=O)c1cccc2c1OCCO2 (stereo not drawn) [Compound 245] | 0.25 to 1 (≈ 0.559 to 2.24 µM)
O=C(c1csnn1)N1CCN2C(=O)c3ccccc3C12c1ccc(Cl)cc1 (stereo not drawn) [Compound 243] | < 0.1
O=C(c1cscn1)N1CCN2C(=O)c3ccccc3C12c1ccc(Cl)cc1 (stereo not drawn) [Compound 334] | 0.1 to 0.25 (≈ 0.253 to 0.632 µM)
O=C(Oc1ccc(C23c4ccccc4C(=O)N2CCN3C(=O)c2ccc(F)cc2)cc1)c1ccc(F)cc1 (stereo not drawn) [Compound 237] | 0.25 to 1 (≈ 0.49 to 1.96 µM)
O=C(c1cccc(Cl)n1)N1CCN2C(=O)c3ccccc3C12c1ccc(Cl)cc1 (stereo not drawn) [Compound 330] | 0.1 to 0.25 (≈ 0.236 to 0.589 µM)
CCCc1ccc(C23c4ccccc4C(=O)N2CCN3C(=O)Cc2ccc(OC)cc2)cc1 (stereo not drawn) [Compound 201] | 0.25 to 1 (≈ 0.567 to 2.27 µM)
O=C(c1ccoc1)N1CCN2C(=O)c3ccccc3C12c1ccc(Cl)cc1 (stereo not drawn) [Compound 326] | 0.1 to 0.25 (≈ 0.264 to 0.66 µM)
CCC(=O)N1CCN2C(=O)c3ccccc3C12c1ccc(CC)cc1 (stereo not drawn) [Compound 192] | 0.25 to 1 (≈ 0.748 to 2.99 µM)
O=C(CSc1ncccn1)N1CCN2C(=O)c3ccccc3C12c1ccc(Cl)cc1 (stereo not drawn) [Compound 303] | 0.25 to 1 (≈ 0.572 to 2.29 µM)
CC(=O)COc1ccc(C23c4ccccc4C(=O)N2CCN3C(=O)c2ccc(F)cc2)cc1 (stereo not drawn) [Compound 268] | 0.25 to 1 (≈ 0.562 to 2.25 µM)

Same assay, conditions: human respiratory syncytial virus, HEp-2, 120 h; RSV A2 in HEp2 cells, CPE assay, MTT, approx. 5 days; read-out: Activity Range (RSV A2 antiviral EC50), compounds of Table 3

SMILES | EC50 [µg/mL]
Cc1nn(-c2ccccc2)nc1C(=O)N1CCN2C(=O)c3ccncc3C21c1ccc(Cl)cc1 (stereo not drawn) [Compound 387] | 0.1 to 0.25 (≈ 0.212 to 0.531 µM)
O=C(c1csnn1)N1CCN2C(=O)c3ccncc3C12c1ccc(Cl)cc1 (stereo not drawn) [Compound 456] | < 0.1
O=C(c1ccc(F)nc1)N1CCN2C(=O)c3cccnc3C12c1ccc(Cl)cc1 (stereo not drawn) [Compound 369] | 0.1 to 0.25 (≈ 0.245 to 0.612 µM)
O=C(c1ccc(F)nc1)N1CCN2C(=O)c3ncccc3C12c1ccc(Cl)cc1 (stereo not drawn) [Compound 370] | 0.25 to 1 (≈ 0.612 to 2.45 µM)
CCc1ccc(C23c4cnccc4C(=O)N2CCN3C(=O)c2ccc(F)cc2)cc1 (stereo not drawn) [Compound 361] | 0.1 to 0.25 (≈ 0.249 to 0.623 µM)
O=C1c2ccncc2C2(c3ccc(Cl)cc3)N1CCN2C(=O)c1ncoc1-c1ccccc1 (stereo not drawn) [Compound 463] | < 0.1
O=C(c1ccc(F)cc1)N1CCN2C(=O)c3cccnc3C12c1ccc(Cl)cc1 (stereo not drawn) [Compound 360] | 0.25 to 1 (≈ 0.613 to 2.45 µM)
O=C(c1ccc(Cl)nc1)N1CCN2C(=O)c3ccncc3C12c1ccc(Cl)cc1 (stereo not drawn) [Compound 364] | 0.25 to 1 (≈ 0.588 to 2.35 µM)
CSc1ncccc1C(=O)N1CCN2C(=O)c3ccncc3C21c1ccc(Cl)cc1 (stereo not drawn) [Compound 398] | 0.1 to 0.25 (≈ 0.229 to 0.572 µM)
O=C(c1csc([N+](=O)[O-])c1)N1CCN2C(=O)c3ccncc3C12c1ccc(Cl)cc1 (stereo not drawn) [Compound 434] | 0.25 to 1 (≈ 0.567 to 2.27 µM)
COc1cscc1C(=O)N1CCN2C(=O)c3ccncc3C12c1ccc(Cl)cc1 (stereo not drawn) [Compound 441] | 0.1 to 0.25 (≈ 0.235 to 0.587 µM)
Cc1cc(C(=O)N2CCN3C(=O)c4ccncc4C32c2ccc(Cl)cc2)c(C(F)(F)F)o1 (stereo not drawn) [Compound 385] | < 0.1
Cn1cc(C(=O)N2CCN3C(=O)c4ccncc4C32c2ccc(Cl)cc2)c(C(F)(F)F)n1 (stereo not drawn) [Compound 467] | < 0.1
CCOc1ccsc1C(=O)N1CCN2C(=O)c3ccncc3C21c1ccc(Cl)cc1 (stereo not drawn) [Compound 449] | < 0.1
O=C1c2ccncc2C2(c3ccc(Cl)cc3)N1CCN2C(=O)c1cccnc1Oc1ccc(Cl)cc1 (stereo not drawn) [Compound 395] | 0.25 to 1 (≈ 0.483 to 1.93 µM)
Cc1noc(C)c1C(=O)N1CCN2C(=O)c3ccncc3C21c1ccc(Cl)cc1 (stereo not drawn) [Compound 392] | 0.1 to 0.25 (≈ 0.245 to 0.611 µM)

SMILES | EC50 [µg/mL]
COc1ccc(CC(=O)N2CCN3C(=O)c4ccncc4C23c2ccc(Cl)cc2)cc1 (stereo not drawn) [Compound 351] | 0.25 to 1 (≈ 0.576 to 2.3 µM)
O=C1c2ccncc2C2(c3ccc(Cl)cc3)N1CCN2C(=O)c1sccc1Cl (stereo not drawn) [Compound 442] | < 0.1
O=C(c1ccc(F)cc1)N1CCN2C(=O)c3ccncc3C12c1ccc(Br)cc1 (stereo not drawn) [Compound 358] | 0.1 to 0.25 (≈ 0.221 to 0.553 µM)
CCc1ccc(C23c4cnccc4C(=O)N2CCN3C(=O)Cc2ccc(OC)cc2)cc1 (stereo not drawn) [Compound 371] | 0.25 to 1 (≈ 0.585 to 2.34 µM)
COc1ccc(-c2ocnc2C(=O)N2CCN3C(=O)c4ccncc4C32c2ccc(Cl)cc2)cc1 (stereo not drawn) [Compound 462] | < 0.1
Cc1nnsc1C(=O)N1CCN2C(=O)c3ccncc3C21c1ccc(Cl)cc1 (stereo not drawn) [Compound 386] | 0.1 to 0.25 (≈ 0.243 to 0.607 µM)
CCCCCSc1ncccc1C(=O)N1CCN2C(=O)c3ccncc3C21c1ccc(Cl)cc1 (stereo not drawn) [Compound 399] | 0.25 to 1 (≈ 0.507 to 2.03 µM)
O=C(c1cncc(-c2cccs2)c1)N1CCN2C(=O)c3ccncc3C12c1ccc(Cl)cc1 (stereo not drawn) [Compound 409] | 0.1 to 0.25 (≈ 0.211 to 0.529 µM)
O=C(c1csc(-c2cccnc2)n1)N1CCN2C(=O)c3ccncc3C12c1ccc(Cl)cc1 (stereo not drawn) [Compound 381] | < 0.1
O=C(c1ccco1)N1CCN2C(=O)c3ccncc3C12c1ccc(Cl)cc1 (stereo not drawn) [Compound 413] | < 0.1
O=C(c1cncnc1)N1CCN2C(=O)c3ccncc3C12c1ccc(Cl)cc1 (stereo not drawn) [Compound 481] | 0.25 to 1 (≈ 0.638 to 2.55 µM)
O=C(c1ccc(F)nc1)N1CCN2C(=O)c3ccncc3C12c1ccc(Cl)cc1 (stereo not drawn) [Compound 368] | < 0.1
Cc1cc(C(=O)N2CCN3C(=O)c4ccncc4C32c2ccc(Cl)cc2)n(C)n1 (stereo not drawn) [Compound 420] | 0.25 to 1 (≈ 0.613 to 2.45 µM)
O=C(c1ccc(F)cc1)N1CCN2C(=O)c3ccncc3C12c1ccccc1Cl (stereo not drawn) [Compound 344] | 0.25 to 1 (≈ 0.613 to 2.45 µM)
Cc1nonc1C(=O)N1CCN2C(=O)c3ccncc3C21c1ccc(Cl)cc1 (stereo not drawn) [Compound 484] | < 0.1
